Values of other authors as cited in patent US20050220774A1, “Methods of inducing differentiation in ex vivo expanded stem cells” (priority 2002, published 2005).

Experiments:
[1] = tested on: CD34+ cells
[2] = tested on: stem cells; conditions: PCT/IL03/00064

SMILES	clonability of long-term cultures ([1]; long-term cultures (3-5 weeks))	cell clonability and percentage of CD34+ cells ([1]; with early-acting or early and late acting cytokines)	differentiation of stem cells ex vivo [2]
NCCNCCNCCNCCN [TEPA, tetraethylenepentamine]	more efficient clonability	significant increases	–
NC(=O)c1cccnc1 [nicotinamide]	–	–	represses the process of differentiation of stem cells
